From patent US9617541B2, “Biocompatible infinite coordination polymer nanoparticle-nucleic acid conjugates for antisense gene regulation” (NORTHWESTERN UNIVERSITY, priority 2014, dated 2017)

Assay: Solubility observations
Format: physicochemical
Description: To a 100 mL round-bottomed flask with a magnetic stirrer was added (2) (5.90 g, 22.67 mmol), maltol (3.57 g, 28.34 mmol), and 30 mL of acidic 2-ethoxyethanol (49:1 ethoxyethanol/12M HCl). The reaction vessel was fitted with a water-cooled condenser and the mixture heated to reflux for 64 h. The resulting suspension was vacuum-filtered while hot and the solids washed with water (50 mL), followed by acetone (50 mL), to afford the crude product as a fine brown solid. […] HRMS-ESI (m/z): [M+H]^+ calculated for C19H17N2O6 369.1081. found 369.1084.
In a typical experiment, an aqueous stock solution of DABA-bis-HP-N3 was prepared consisting of 2.28 mM ligand and 24.5 mM NaOH. […] A stock solution of Fe(NO3)3.9H2O was prepared consisting of 10.80 mM Fe^3+ and 4 mM HCl (as stabilizer). To a glass vial was added 877 μL ligand stock solution, followed by 1 mL Milli-Q H2O, followed by 123 μL Fe(III) stock and the resulting orange-red mixture (2 mL) shaken for 10 minutes. The as-synthesized particles have a mean diameter ranging from 10-20 nm (DLS). Particles were purified by filtration through an Amicon Ultra 15 mL centrifugal filter with a nominal molecular weight cutoff (MWCO) of 100 kDa, washing with 3×3 mL portions of Milli-Q H2O, spinning at 5000 rcf for 10 minutes each. The particles were resuspended in 2 mL of H2O to give an approximate azide concentration of 1 mM. The particle solution was lyophilized and the resulting dark red powder characterized by FTIR (KBr), showing the characteristic azide stretch at 2093 cm^−1 is retained after the nanoparticle synthesis.

Row | solubility in hot DMSO and DMF (hot DMSO and DMF) | solubility in methanol (methanol) | solubility in water (water, as disodium salt) | SMILES
1 | soluble | sparingly soluble |  | Cc1c(O)c(=O)ccn1-c1cc(C(=O)O)cc(-n2ccc(=O)c(O)c2C)c1 [compound 3, Diaminobenzoic Acid Bis-Hydroxypyridinone]
2 |  |  | freely soluble | Cc1c(O)c(=O)ccn1-c1cc(C(=O)NCCCCN=[N+]=[N-])cc(-n2ccc(=O)c(O)c2C)c1 [compound 4, Diaminobenzoic Acid Bis-HP Azide]
